Measurements published in patent US7553966B2, “Glucocorticoid mimetics, methods of making them, pharmaceutical compositions, and uses thereof” (Boehringer Ingelheim Pharmaceuticals, Inc., priority 2002, dated 2009).

Legend:
[1] = biological target: T1, human glucocorticoid receptor (GR) complex (Homo sapiens, UniProt P04150); experiment: Glucocorticoid Receptor Competitive Binding Assay (fluorescence polarization, TAMRA-labeled dexamethasone probe); details: qualitative statement; competition with TAMRA-labeled dexamethasone
T1 construct: made in house; host or cells: insect expression system (baculovirus lysate)
T1 sequence (P04150 1-777): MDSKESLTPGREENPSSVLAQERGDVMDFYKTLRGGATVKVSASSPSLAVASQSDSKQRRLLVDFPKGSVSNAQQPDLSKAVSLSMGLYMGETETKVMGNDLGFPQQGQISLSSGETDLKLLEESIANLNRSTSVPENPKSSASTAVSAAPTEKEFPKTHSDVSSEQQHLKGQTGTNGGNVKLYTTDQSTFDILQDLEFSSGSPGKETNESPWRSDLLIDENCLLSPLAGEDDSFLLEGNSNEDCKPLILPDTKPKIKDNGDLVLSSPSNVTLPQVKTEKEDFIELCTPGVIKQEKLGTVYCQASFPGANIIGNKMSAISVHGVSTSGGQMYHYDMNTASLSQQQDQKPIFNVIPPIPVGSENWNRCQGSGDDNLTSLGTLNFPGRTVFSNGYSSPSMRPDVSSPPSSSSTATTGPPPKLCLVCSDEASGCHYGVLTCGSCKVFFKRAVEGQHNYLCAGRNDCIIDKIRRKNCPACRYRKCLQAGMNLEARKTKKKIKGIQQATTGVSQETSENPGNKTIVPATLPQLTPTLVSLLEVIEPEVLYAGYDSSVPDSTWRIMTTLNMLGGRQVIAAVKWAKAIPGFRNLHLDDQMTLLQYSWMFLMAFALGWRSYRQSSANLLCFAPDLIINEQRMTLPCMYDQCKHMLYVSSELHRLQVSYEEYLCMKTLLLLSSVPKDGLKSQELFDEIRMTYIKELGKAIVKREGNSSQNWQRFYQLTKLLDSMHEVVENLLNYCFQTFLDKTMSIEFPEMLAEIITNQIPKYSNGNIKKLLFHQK
Procedure, shortened: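 Competition with TAMRA-dexamethasone for a human GR complex expressed in insect cells, read by fluorescence polarization. Buffer was 10 mM TES, 50 mM KCl, 20 mM Na2MoO4, 1.5 mM EDTA, 0.04% CHAPS, 10% glycerol, 1 mM DTT, pH 7.4.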

glucocorticoid receptor = experiment: Glucocorticoid Receptor Cell Assays (agonist activity in one or more of the above assays); type: cell-based; details: qualitative statement; assay not specified

SMILES | activity in the GR binding assay [1] | activity as agonists of the glucocorticoid receptor function in one or more of the above assays (glucocorticoid receptor)
CC(C)(CC(O)(Cc1cc2cnccc2[nH]1)C(F)(F)F)c1cc(F)ccc1O (stereo not drawn) [4-Fluoro-2-[4,4,4-trifluoro-3-hydroxy-1,1-dimethyl-3-(1H-pyrrolo[3,2-c]pyridin-2-ylmethyl)butyl]phenol] | potent activity | potent agonists
CC(C)(CC(O)(Cc1cc2cc(C#N)ccc2[nH]1)C(F)(F)F)c1ccccc1 (stereo not drawn) [2-(2-Hydroxy-4-methyl-4-phenyl-2-trifluoromethylpentyl)-1H-indole-5-carbonitrile] | potent activity | potent agonists
COc1ccc(F)cc1C(C)(C)CC(O)(Cc1cc2cc(C#N)ccc2[nH]1)C(F)(F)F (stereo not drawn) [2-[4-(5-Fluoro-2-methoxyphenyl)-2-hydroxy-4-methyl-2-trifluoromethylpentyl]-1H-indole-5-carbonitrile] | potent activity | potent agonists
CC(C)(CC(O)(Cc1ccnc2ccccc12)C(F)(F)F)c1ccccc1O (stereo not drawn) [2-(4,4,4-Trifluoro-3-hydroxy-1,1-dimethyl-3-quinolin-4-ylmethylbutyl)phenol] | potent activity | potent agonists
CC(C)(CC(O)(Cc1ccnc2ccccc12)C(F)(F)F)c1cc(Br)c2c(c1)CCO2 (stereo not drawn) [4-(7-Bromo-2,3-dihydrobenzofuran-5-yl)-1,1,1-trifluoro-4-methyl-2-quinolin-4-ylmethylpentan-2-ol] | potent activity | potent agonists
COc1ccc(F)cc1C(C)(C)CC(O)(Cc1ccnc2ccccc12)C(F)(F)F (stereo not drawn) [1,1,1-Trifluoro-4-(5-fluoro-2-methoxyphenyl)-4-methyl-2-(quinolin-4-ylmethyl)pentan-2-ol] | potent activity | potent agonists
Cc1cccc2[nH]c(CC(O)(CC(C)(C)c3cc(F)ccc3O)C(F)(F)F)cc12 (stereo not drawn) [4-Fluoro-2-[4,4,4-trifluoro-3-hydroxy-1,1-dimethyl-3-(4-methyl-1H-indol-2-ylmethyl)butyl]phenol] | potent activity | potent agonists
COc1ccc(F)cc1C(C)(C)CC(O)(Cc1cc2c(C)cc(C#N)cc2[nH]1)C(F)(F)F (stereo not drawn) [2-[4-(5-Fluoro-2-methoxyphenyl)-2-hydroxy-4-methyl-2-trifluoromethylpentyl]-4-methyl-1H-indole-6-carbonitrile] | potent activity | potent agonists
COc1ccc(F)cc1C(C)(C)CC(O)(Cc1cc(Cl)nc(Cl)c1)C(F)(F)F (stereo not drawn) [2-(2,6-Dichloropyridin-4-ylmethyl)-1,1,1-trifluoro-4-(5-fluoro-2-methoxyphenyl)-4-methylpentan-2-ol] | potent activity | potent agonists
COc1ccc(F)cc1C(C)(C)CC(O)(Cc1cc2ccccc2[nH]1)C(F)(F)F (stereo not drawn) [1,1,1-Trifluoro-4-(5-fluoro-2-methoxyphenyl)-2-(1H-indol-2-ylmethyl)-4-methylpentan-2-ol] | potent activity | potent agonists
CC(C)(CC(O)(Cc1ccnc2ccccc12)C(F)(F)F)c1cc(F)cc2c1OCC2 (stereo not drawn) [1,1,1-Trifluoro-4-(5-fluoro-2,3-dihydrobenzofuran-7-yl)-4-methyl-2-quinolin-4-ylmethylpentan-2-ol] | potent activity | potent agonists
CC(C)(CC(O)(Cc1ccnc2ccccc12)C(F)(F)F)c1cccc2c1OCC2 (stereo not drawn) [4-(2,3-Dihydrobenzofuran-7-yl)-1,1,1-trifluoro-4-methyl-2-quinolin-4-ylmethylpentan-2-ol] | potent activity | potent agonists
CC(C)(CC(O)(Cc1ccnc2ccccc12)C(F)(F)F)c1cccc(C(F)(F)F)c1 (stereo not drawn) [1,1,1-Trifluoro-4-methyl-2-quinolin-4-ylmethyl-4-(3-trifluoromethylphenyl)pentan-2-ol] | potent activity | potent agonists
CC(C)(CC(O)(Cc1cc2ccncc2[nH]1)C(F)(F)F)c1cccc2c1OCC2 (stereo not drawn) [4-(2,3-Dihydrobenzofuran-7-yl)-1,1,1-trifluoro-4-methyl-2-(1H-pyrrolo[2,3-c]pyridin-2-ylmethyl)pentan-2-ol] | potent activity | potent agonists
CC(C)(CC(O)(Cc1ccnc2cccc(F)c12)C(F)(F)F)c1ccc(F)cc1 (stereo not drawn) [1,1,1-Trifluoro-4-(4-fluorophenyl)-2-(5-fluoroquinolin-4-ylmethyl)-4-methylpentan-2-ol] | potent activity | potent agonists
COc1cc(F)ccc1C(C)(C)CC(O)(Cc1ccnc2c1CCCC2)C(F)(F)F (stereo not drawn) [1,1,1-Trifluoro-4-(4-fluoro-2-methoxyphenyl)-4-methyl-2-(5,6,7,8-tetrahydroquinolin-4-ylmethyl)pentan-2-ol] | potent activity | potent agonists
COc1ccc(Br)cc1C(C)(C)CC(O)(Cc1cc2ccccc2[nH]1)C(F)(F)F (stereo not drawn) [4-(5-Bromo-2-methoxyphenyl)-1,1,1-trifluoro-2-(1H-indol-2-ylmethyl)-4-methylpentan-2-ol] | potent activity | potent agonists
COc1cc(F)c(Br)cc1C(C)(C)CC(O)(Cc1ccnc2ccccc12)C(F)(F)F (stereo not drawn) [4-(5-Bromo-4-fluoro-2-methoxyphenyl)-1,1,1-trifluoro-4-methyl-2-quinolin-4-ylmethylpentan-2-ol] | potent activity | potent agonists
COc1ccc(F)cc1C(C)(C)CC(O)(Cc1cc2ccncc2[nH]1)C(F)(F)F (stereo not drawn) [1,1,1-Trifluoro-4-(5-fluoro-2-methoxyphenyl)-4-methyl-2-(1H-pyrrolo[2,3-c]pyridin-2-ylmethyl)pentan-2-ol] | potent activity | potent agonists
COc1cc(F)ccc1C(C)(C)CC(O)(Cc1cc2cc(C#N)ccc2[nH]1)C(F)(F)F (stereo not drawn) [2-[4-(4-Fluoro-2-methoxyphenyl)-2-hydroxy-4-methyl-2-trifluoromethylpentyl]-1H-indole-5-carbonitrile] | potent activity | potent agonists
CC(C)(CC(O)(Cc1cc2cnccc2[nH]1)C(F)(F)F)c1cccc2c1OCC2 (stereo not drawn) [4-(2,3-Dihydrobenzofuran-7-yl)-1,1,1-trifluoro-4-methyl-2-(1H-pyrrolo[3,2-c]pyridin-2-ylmethyl)pentan-2-ol] | potent activity | potent agonists
Cc1cc(C#N)cc2[nH]c(CC(O)(CC(C)(C)c3ccc(F)cc3)C(F)(F)F)cc12 (stereo not drawn) [2-[4-(4-Fluorophenyl)-2-hydroxy-4-methyl-2-trifluoromethylpentyl]-4-methyl-1H-indole-6-carbonitrile] | potent activity | potent agonists
COc1ccc(F)cc1C(C)(C)CC(O)(Cc1cc2cnccc2[nH]1)C(F)(F)F (stereo not drawn) [1,1,1-Trifluoro-4-(5-fluoro-2-methoxyphenyl)-4-methyl-2-(1H-pyrrolo[3,2-c]pyridin-2-ylmethyl)pentan-2-ol] | potent activity | potent agonists
COc1cc(F)ccc1C(C)(C)CC(O)(Cc1[nH]c2ccccc2c1C#N)C(F)(F)F (stereo not drawn) [2-[4-(4-Fluoro-2-methoxyphenyl)-2-hydroxy-4-methyl-2-trifluoromethyl-pentyl]-1H-indole-3-carbonitrile] | potent activity | potent agonists
